# Laboratory results reported in patent publication US20240307349A1, “METHODS FOR THE PREPARATION AND DOSE REGIMENS FOR USE OF SSTR4 AGONISTS AND SALTS THEREOF” (priority 2023, published 2024).
# How the values were obtained:
# Assay type in all cases: in vivo, human
# patients = test: Pooled safety analysis of Phase 2 studies OA03, BP03 and NP03; settings: 200 mg to 600 mg
# Experimental: For each of these studies, further analyses were performed to identify TEAEs related to CV, thyroid, and abnormal renal function. CV AEs were identified using prespecified standardized MedDRA queries/preferred terms (SMQs/PTs) for cardiac arrhythmia, hypotension, major adverse cardiovascular event, and congestive heart failure. Thyroid-related AEs were identified with the ‘Hypothyroidism’ (SMQ), and AEs associated with abnormal renal function were identified with the high-level terms (HLTs) renal failure and impairment and select PTs.
# Safety data from the 3 pooled intervention-specific appendix (ISAs), OA03, BP03, and NP03 were analyzed for the following safety topics of interest.
# Thus, after the treatment of a total 282 patients that were administered from 200 mg to 600 mg of Example 5 in the 3 phase 2 studies, an adequate safety profile was established. While the safety of the 3 phase 2 studies were discussed together, the efficacy results for each study will be discussed herein.
# participants with DPNP = test: H0P-MC-NP03 Phase 2 placebo-controlled trial, diabetic peripheral neuropathic pain
# Source text: The purpose of this study was to test whether Example 5 is efficacious in relieving diabetic peripheral neuropathic pain (DPNP). Data was collected to assess the safety and tolerability of Example 5 in this study population and previously discussed above. Pharmacokinetic properties and pharmacodynamic effects were also explored. The totality of data from this proof-of-concept study will assess the benefits and risks associated with Example 5.
# NP03 was an 8-week, Phase 2, randomized, double-blind, placebo-controlled study that compared Example 5 versus placebo in participants with DPNP.
# Participants received either Example 5 or placebo. Based on tolerability, participants received up to a maximum of 3 capsules orally (each capsule was 200 mg), twice daily, approximately every 12 hours, for a total dose of 600 mg.
# The primary clinical question of interest was, “What is the treatment difference between Example 5 and placebo assessed using mean change from baseline to endpoint (Week 8) for average pain intensity (API) as measured by the Numeric Rating Scale (NRS) in participants with diabetic peripheral neuropathic pain (DPNP) regardless of initiation of rescue medication or other allowed concomitant medication and assuming that they would have continued initially randomized treatment condition?”
# Participants were randomly assigned 2:1 to Example 5 or placebo. Based on tolerability, participants could take up to a maximum of 3 capsules orally (each capsule was 200 mg), twice daily (BID), approximately every 12 hours, for a total dose of 600 mg BID.
# The protocol allowed changes to the dose for individual participants, but the maximum daily dose should not exceed 600 mg BID. The starting dose level was 200 mg BID. Decisions to change the dose level were made by the investigator in discussion with the participants based on the adverse events (AEs) reported for tolerability. The medical monitor was contacted as needed. All changes in dose level had to occur before the end of Visit 4 (Study Week 2).
# NP03 was an 8-week, multicenter, randomized, DB, placebo-controlled, Phase 2, proof-of-concept study to evaluate Example 5 for the treatment of DPNP. Participants were randomly assigned 2:1 to Example 5 or placebo. A total of 68 participants enrolled into the NP03 ISA, with 45 participants randomly assigned to Example 5, and 23 participants assigned to placebo. The safety population consisted of the 68 participants who received at least 1 dose of study intervention and included all participants in the enrolled population. Using a titration scheme, Example 5 was administered orally as a maximum of 3 capsule (200 mg per capsule) for a total dose of 600 mg approximately every 12 hours, with or without food. Fifty percent of participants completed the BD treatment phase.
# healthy subjects = test: Phase 1 study LXBA, safety and tolerability in healthy subjects
# Source text: The safety and tolerability of Example 5, were initially based on the 2 completed Phase 1 studies (LXBB and LXBA) and later confirmed with 3 completed Phase 2 studies (OA03, BP03, and NP03, as disclosed below).
# Study LXBA is a completed study and consisted of 2 parts, Part A and Part B (TABLE 1). Part A of the study had 18 healthy subjects in 3 dosing cohorts, and Part B had 9 healthy subjects exposed to Example 5. […] In Part A, all treatment-emergent adverse events (TEAEs) were mild in severity except for 1 moderate event of presyncope. Constipation and insomnia (2 events each) were the only TEAEs reported in >1 subject. In Part B, the reported TEAEs were dysgeusia, nausea, and vomiting, which were all mild in severity.
# participants with CLBP = test: H0P-MC-BP03 Phase 2 placebo-controlled trial, chronic low back pain
# Source text: The purpose of this study was to test whether Example 5 is efficacious in relieving chronic low back pain (CLBP). Data will be collected to assess the safety and tolerability of Example 5 in this study population, which was previously discussed. Pharmacokinetic (PK) properties and pharmacodynamic (PD) effects were also be explored. The totality of data from this proof-of-concept study will assess the benefits and risks associated with Example 5.
# BP03 was an 8-week, Phase 2, randomized, double-blind, placebo-controlled study that will compare Example 5 versus placebo in participants with CLBP. Participants received either Example 5 or placebo. Based on tolerability, participants took up to a maximum of 3 capsules orally (each capsule is 200 mg), twice daily (BID), approximately every 12 hours, for a total dose of 600 mg.
# The primary clinical question of interest was, “What is the treatment difference between Example 5 and placebo assessed using mean change from baseline to endpoint (Week 8) for average pain intensity (API) as measured by the numeric rating scale (NRS) in participants with CLBP regardless of initiation of rescue medication or other allowed concomitant medication and assuming that they would have continued initially randomized treatment condition?”
structure (smiles),measurement,setting,value
"Cc1cccnc1OCC(C)(C)NC(=O)[C@H]1[C@@H]2CNC[C@@H]21.O=C(O)C(O)C(O)C(=O)O [Example 5, (1R,5S,6r)-N-(2-Methyl-1-((3-methylpyridin-2-yl)oxy)propan-2-yl)-3-azabicyclo[3.1.0]hexane-6-carboxamide L-tartrate sesquihydrate]",differences in thyroid-related TEAEs or thyroid analytes versus placebo,patients,no clinically meaningful differences
same,"Mean Change of Average Pain Intensity, Weekly Average of NRS","participants with DPNP; 400 mg BID, week 1, n = 8",−0.74
same,"Observed Mean of Average Pain Intensity, Weekly Average of NRS","participants with DPNP; 400 mg BID, week 1, n = 8",5.76
same,"Mean Change of Average Pain Intensity, Weekly Average of NRS","participants with DPNP; 400 mg BID, week 2, n = 9",−1.62
same,"Observed Mean of Average Pain Intensity, Weekly Average of NRS","participants with DPNP; 400 mg BID, week 2, n = 9",4.90
same,"Mean Change of Average Pain Intensity, Weekly Average of NRS","participants with DPNP; 400 mg BID, week 3, n = 9",−2.12
same,"Observed Mean of Average Pain Intensity, Weekly Average of NRS","participants with DPNP; 400 mg BID, week 3, n = 9",4.41
same,"Mean Change of Average Pain Intensity, Weekly Average of NRS","participants with DPNP; 400 mg BID, week 4, n = 6",−2.05
same,"Observed Mean of Average Pain Intensity, Weekly Average of NRS","participants with DPNP; 400 mg BID, week 4, n = 6",5.46
same,"Mean Change of Average Pain Intensity, Weekly Average of NRS","participants with DPNP; 400 mg BID, week 5, n = 4",−3.37
same,"Observed Mean of Average Pain Intensity, Weekly Average of NRS","participants with DPNP; 400 mg BID, week 5, n = 4",4.66
same,"Mean Change of Average Pain Intensity, Weekly Average of NRS","participants with DPNP; 400 mg BID, week 6, n = 5",−2.72
same,"Observed Mean of Average Pain Intensity, Weekly Average of NRS","participants with DPNP; 400 mg BID, week 6, n = 5",4.15
same,"Mean Change of Average Pain Intensity, Weekly Average of NRS","participants with DPNP; 400 mg BID, week 7, n = 4",−3.34
same,"Observed Mean of Average Pain Intensity, Weekly Average of NRS","participants with DPNP; 400 mg BID, week 7, n = 4",2.96
same,"Mean Change of Average Pain Intensity, Weekly Average of NRS","participants with DPNP; 400 mg BID, week 8, n = 4",−3.39
same,"Observed Mean of Average Pain Intensity, Weekly Average of NRS","participants with DPNP; 400 mg BID, week 8, n = 4",4.17
same,"Mean Change of Average Pain Intensity, Weekly Average of NRS","participants with DPNP; 600 mg BID, week 1, n = 30",−0.72
same,"Observed Mean of Average Pain Intensity, Weekly Average of NRS","participants with DPNP; 600 mg BID, week 1, n = 30",5.77
same,"Mean Change of Average Pain Intensity, Weekly Average of NRS","participants with DPNP; 600 mg BID, week 2, n = 29",−1.59
same,"Observed Mean of Average Pain Intensity, Weekly Average of NRS","participants with DPNP; 600 mg BID, week 2, n = 29",4.91
same,"Mean Change of Average Pain Intensity, Weekly Average of NRS","participants with DPNP; 600 mg BID, week 3, n = 23",−2.09
same,"Observed Mean of Average Pain Intensity, Weekly Average of NRS","participants with DPNP; 600 mg BID, week 3, n = 23",4.82
same,"Mean Change of Average Pain Intensity, Weekly Average of NRS","participants with DPNP; 600 mg BID, week 4, n = 24",−2.18
same,"Observed Mean of Average Pain Intensity, Weekly Average of NRS","participants with DPNP; 600 mg BID, week 4, n = 24",4.64
same,"Mean Change of Average Pain Intensity, Weekly Average of NRS","participants with DPNP; 600 mg BID, week 5, n = 21",−2.43
same,"Observed Mean of Average Pain Intensity, Weekly Average of NRS","participants with DPNP; 600 mg BID, week 5, n = 21",4.18
same,"Mean Change of Average Pain Intensity, Weekly Average of NRS","participants with DPNP; 600 mg BID, week 6, n = 19",−2.37
same,"Observed Mean of Average Pain Intensity, Weekly Average of NRS","participants with DPNP; 600 mg BID, week 6, n = 19",4.26
same,"Mean Change of Average Pain Intensity, Weekly Average of NRS","participants with DPNP; 600 mg BID, week 7, n = 17",−2.64
same,"Observed Mean of Average Pain Intensity, Weekly Average of NRS","participants with DPNP; 600 mg BID, week 7, n = 17",3.78
same,"Mean Change of Average Pain Intensity, Weekly Average of NRS","participants with DPNP; 600 mg BID, week 8, n = 16",−2.74
same,"Observed Mean of Average Pain Intensity, Weekly Average of NRS","participants with DPNP; 600 mg BID, week 8, n = 16",3.79
same,Mean change from baseline assessment to endpoint for API as measured using the NRS,"participants with DPNP; 8 weeks after initial treatment administration, up to 600 mg Q12H, n = 45",−2.75
same,most secondary endpoints compared with placebo,participants with DPNP; DPNP,greater numerical improvements
same,"decrease in API measured by NRS, 400 mg dosing regimen compared with the 600 mg dosing regimen",participants with DPNP; Week 8,greater decrease in API measured by NRS in the 400 mg dosing regimen
same,primary objective: posterior probability for change from baseline in API versus placebo,"participants with DPNP; Week 8, DPNP",met the prespecified threshold
same,Mean change from baseline assessment to endpoint for worst pain intensity as measured by weekly NRS,"participants with DPNP; Week 8, n = 45",−3.06
same,Mean change from baseline assessment to endpoint on the VAS for pain,"participants with DPNP; Week 8, n = 45",−30.20
same,Mean change from baseline to endpoint for the BPI-SFM,"participants with DPNP; Week 8, n = 45",−2.31
same,Overall improvement to endpoint as measured by PGIC,"participants with DPNP; Week 8, n = 45",2.3
same,tolerability,healthy subjects; Part A 18 and Part B 9 healthy subjects,generally well tolerated
same,"deaths, SAEs, or discontinuations due to AEs","healthy subjects; human, in vivo","No deaths, SAEs, or discontinuations due to AEs have been reported"
same,severity of AEs,"healthy subjects; human, in vivo",majority of AEs were of mild severity
same,Mean change from baseline assessment to endpoint for API as measured using the NRS,"participants with CLBP; 8 weeks after initial treatment administration, up to 600 mg Q12H, n = 102",−1.7
same,"primary objective: efficacy versus placebo, API by weekly average of NRS","participants with CLBP; Week 8, CLBP",did not meet the prespecified threshold
